Reference: US20100273189A1, “NON SEPARATION ASSAYS WITH SELECTIVE SIGNAL INHIBITORS” (BECKMAN COULTER, INC., priority 2009, published 2010)
Where two headings read alike, the source gives them in different places.

What was measured:
PSA = test: Screening SSIA by homogeneous PSA immunoassay; assay type: biochemical
Experimental: This example presents one method used for testing of candidate compounds for functionality as SSIA in assays of the present disclosure. Testing was conducted in a model screening immunoassay of the protein PSA. Mouse anti-PSA tests were run using a 96-well microtiter plate format. […] The plate was incubated at 37° C. for 10 minutes. A 5 μL aliquot of the test compound (various concentrations) was added to each well. Chemiluminescence was triggered by the addition of 100 μL of a solution of trigger solution A. The chemiluminescent flash was integrated for 5 seconds after the addition of the trigger solution using a Luminoskan Asent® plate luminometer, (Thermo Fischer Scientific, Inc., Waltham, Mass.).
It is desirable that the improvement factor be at least 2 (S5/S0≧ about 20-30) and more desirable that improvement factor be at least 5 (S5/S0≧ about 50), yet more desirable that S5/S0 be ≧100 in the present screen.

biotinylated HRP = molecular target: T1, biotinylated HRP (Armoracia rusticana, UniProt P00433); test: Model system for selection of SSIA (M280 btn-BSA-AK1-streptavidin particles + Btn-HRP:HRP); assay type: biochemical; conditions: for S/S0: Btn-HRP 0 ng/mL vs 0; for S/S0 / S1/S0 / S2/S0 / S3/S0 / S4/S0 / effect in the model system / utility as SSIA: SSIA 100 μM; for B-HRP0 light intensity: Btn-HRP 0 ng/mL; for B-HRP0 light intensity / B-HRP1 light intensity / B-HRP10 light intensity / B-HRP100 light intensity / B-HRP250 light intensity: total HRP 500 ng/mL, SSIA final 100 μM; for S1/S0: Btn-HRP 1 ng/mL vs 0; for B-HRP1 light intensity: Btn-HRP 1 ng/mL; for S2/S0: Btn-HRP 10 ng/mL vs 0; for B-HRP10 light intensity: Btn-HRP 10 ng/mL; for S3/S0: Btn-HRP 100 ng/mL vs 0; for B-HRP100 light intensity: Btn-HRP 100 ng/mL; for S4/S0: Btn-HRP 250 ng/mL vs 0; for B-HRP250 light intensity: Btn-HRP 250 ng/mL; for effect in the model system / utility as SSIA: conclusion in words
T1 construct: purchased Roche Diagnostics, Indianapolis, Ind., USA
T1 sequence (P00433 31-338 limits assumed): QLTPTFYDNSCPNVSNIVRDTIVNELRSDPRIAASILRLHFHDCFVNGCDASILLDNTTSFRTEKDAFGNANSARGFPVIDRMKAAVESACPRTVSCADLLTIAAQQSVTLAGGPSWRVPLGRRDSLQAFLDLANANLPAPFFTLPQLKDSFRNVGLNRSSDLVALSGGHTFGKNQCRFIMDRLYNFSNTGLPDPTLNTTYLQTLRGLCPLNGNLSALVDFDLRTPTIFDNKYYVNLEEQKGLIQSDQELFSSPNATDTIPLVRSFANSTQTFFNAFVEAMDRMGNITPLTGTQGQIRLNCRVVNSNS
Experimental: The model system uses a microparticle conjugated to BSA (bovine serum albumin) labeled with a […] and acridan ketenedithioacetal chemiluminescent label (AK1) as the chemiluminescent-labeled sbp, and biotinylated HRP as the activator-labeled specific binding pair. In the model system, varying amounts of Btn-HRP is added to the chemiluminescent-labeled specific binding pair at 0, 1, 10, 100 and 250 ng/mL. Additional unlabeled HRP is added to reach a total HRP of concentration of 500 ng/mL in each reaction mixture. The unlabeled HRP in combination with the activator-labeled sbp was provided to the chemiluminescent-labeled sbp microparticles to emulate sample. A compound for assessment as an SSIA was also added. This reaction mixture of the model system is then triggered by addition of trigger solution in a manner of assays of the present disclosure.
To prepare the chemiluminescent-labeled sbp on microparticles, Bovine Serum Albumin (BSA) was biotinylated with 4× molar excess of biotin-LC-sulfoNHS (Pierce Biotechnology Inc., Rockford, Ill., USA). Unbound reactants were removed via desalting or dialysis. The biotin-BSA was then reacted with a 5× molar excess of acridan ketenedithioacetal AK1 in 20 mM sodium phosphate pH 7.2: DMSO 75:25, v/v) followed by desalting in the same buffer. The dual labeled (biotin and AK1) BSA was then coupled with tosyl activated M-280 microparticles (Invitrogen Corporation, Carlsbad, Calif., USA) in a 0.1 M borate buffer pH 9.5 at a concentration of ca. 20 μg labeled BSA per mg of microparticles for 16-24 h at 40° C. After coupling the microparticles were stripped for 1 h at 40° C. with 0.2 M TRIS base, 2% SDS, pH ˜11. The stripping process was repeated one additional time. Microparticles were then suspended in a 0.1% BSA/TRIS buffered saline (BSA/TBS) buffer and streptavidin (SA) was added at approximately 15 μg SA per mg microparticles. Streptavidin was mixed with the microparticles for 45-50 min at room temperature. The microparticles were then washed three times and suspended in the same BSA/TBS.
HRP, (Roche Diagnostics, Indianapolis, Ind., USA) was biotinylated with 4× molar excess of biotin-LC-sulfoNHS (Pierce Biotechnology Inc., Rockford, Ill., USA). Unbound reactants were removed via desalting or dialysis.
Each SSIA compound for assessment was dissolved in Buffer II at a concentration at least 10× of final concentration of the reaction mixture (after the addition of the trigger solution)
Paramagnetic particles (PMP): (M280)-(btn-BSA-AK)-(Streptavidin);
Sample Emulator: B-HRP:HRP; 500 ng/mL total with titration of B-HRP:HRP at Total HRP concentration of 500 ng/mL, with Btn-HRP variations: 0, 1, 10, 100 and 250 ng/mL.
SSIA: According to tables below in BUFFER II targeted to give a final concentration of 100 μM.
Trigger solution A is defined above.
5 μl of 1 mg/ml of dual-labeled (biotin and AK1) BSA M280 particles were mixed with 45 μl of working concentration SSIA in Buffer II. The assay volume brought to […] by adding 15 μl of Buffer II. 15 μl of sample containing Btn-HRP:HRP at different ratios (The amount of biotinylated-HRP varied from 0, 1, 10, 100 and 250 ng/mL) was added. The reaction mixture was incubated for 30 min at 37° C., then 100 μL of trigger solution was added and the light intensity recorded. Total volume of reaction mixture, including trigger solution was […] with a final concentration of 100 μM of SSIA.

GM-CSF = system: GM-CSF
Experimental: The term “GM-CSF” refers to granulocyte macrophage […], a protein necessary for the survival, proliferation and differentiation of hematopoietic progenitor cells, having human gene map locus 5q31.1. A variety of antibodies to GM-CSF are commercially available.
Heterogeneous phase assays directed to GM-CSF were conducted using a LodeStars PMP labeled with AK4 and biotin/streptavidin (AK-PMP-SA) as described in Example 3, an antibody-biotin conjugate and an antibody-HRP conjugate binding to GM-CSF. The antibody-HRP conjugate, (antiGM-CSF-HRP) was purchased from Antigenix.
The antibody-biotin (antiGM-CSF-biotin) conjugate was synthesized by adding a 25-fold molar excess (9.28 μg) of sulfo NHS-biotin (Pierce), dissolved in DMF (1 mg/mL), to 0.1 mg of antibody (Antigenix) in 0.1 mL of 0.1 M sodium borate pH 8.25. After a 60 min incubation at ambient temperature, the reaction was left to incubate overnight at 4° C. The biotinylated antibody was purified over a Sephadex G-25 column (GE Healthcare), equilibrated in PBS, pH 7.4, following the manufacturers instructions.
In order to conduct the heterogeneous assay, 30 μL of an antiGM-CSF-Biotin conjugate solution (0.75 μg/mL, 22.5 ng), 30 μL of calibrator solution having GM-CSF in the range 0-30,000 pg/mL, 30 μL of antiGM-CSF-HRP conjugate (2.25 μg/mL, 67 ng), and 30 μL of AK-streptavidin magnetic particle solution (10 μg of particles) were pipetted into the wells of a white microtiter plate. The plate was incubated for 60 minutes at room temperature. 5 μL of a 2-aminophenol solution (11 mM, 55 nmoles) was added as SSIA. The plate was placed into an injection plate luminometer. 100 μL of trigger solution A was added by the luminometer and the chemiluminescent signal was read for 5 seconds.

[1] = PSA 129 ng/mL (S5) vs zero, test compound final conc. 0.122 mM
[2] = PSA 129 ng/mL (S5) vs zero, test compound final conc. 0.244 mM
[3] = PSA 129 ng/mL (S5) vs zero, test compound final conc. 122 uM
[4] = 2-aminophenol as SSIA, GM-CSF 0 pg/mL
[5] = 2-aminophenol as SSIA, GM-CSF 1 pg/mL
[6] = 2-aminophenol as SSIA, GM-CSF 3 pg/mL
[7] = 2-aminophenol as SSIA, GM-CSF 5 pg/mL
[8] = 2-aminophenol as SSIA, GM-CSF 10 pg/mL
[9] = 2-aminophenol as SSIA, GM-CSF 100 pg/mL
[10] = 2-aminophenol as SSIA, GM-CSF 1000 pg/mL
[11] = 2-aminophenol as SSIA, GM-CSF 10000 pg/mL

Nc1ncccc1O
S5/S0 (PSA; [1]): 32

O=S(=O)([O-])CCCN1c2ccccc2Sc2ccccc21.[Na+]
S5/S0 (PSA; [2]): 50

Nc1cccc(Cl)c1O
S5/S0 (PSA; [2]): 300

c1ccc2c(c1)Nc1ccccc1O2
S5/S0 (PSA; [1]): 605

O=C1C=C(O)C(=O)C=C1O
S5/S0 (PSA; [2]): 14

O=C(O)C1c2ccccc2Oc2ccccc21
S5/S0 (PSA; [1]): 7

O=C1O[C@H]([C@@H](O)CO)C([O-])=C1O.[Na+]
S5/S0 (PSA; [3]): 9.2

Nc1ccc(O)cc1O
S5/S0 (PSA; PSA 129 ng/mL (S5) vs zero, test compound final conc. 0.030 mM): 161

Nc1cc(Cl)ccc1O
S5/S0 (PSA; [2]): 205

N[C@@H](CCC(=O)N[C@@H](CS)C(=O)NCC(=O)O)C(=O)O [Glutathione]
S/S0 (biotinylated HRP): 1 | B-HRP0 light intensity (biotinylated HRP): 26,977 | S1/S0 (biotinylated HRP): 2.1 | B-HRP1 light intensity (biotinylated HRP): 55,719 | S2/S0 (biotinylated HRP): 92 | B-HRP10 light intensity (biotinylated HRP): 2,480,764 | S3/S0 (biotinylated HRP): 323.7 | B-HRP100 light intensity (biotinylated HRP): 8,733,068 | S4/S0 (biotinylated HRP): 369.4 | B-HRP250 light intensity (biotinylated HRP): 9,965,235 | effect in the model system / utility as SSIA (biotinylated HRP): no effect | S5/S0 (PSA; [3]): 77

Nc1ccc2[nH]ncc2c1
S5/S0 (PSA; PSA 129 ng/mL (S5) vs zero, test compound final conc. 12.2 mM): 10

O=c1ccc2cc(O)c(O)cc2o1
S5/S0 (PSA; [1]): 105

COc1ccccc1O
S5/S0 (PSA; [1]): 13

O=C(O)c1cc(O)c(O)c(O)c1
S5/S0 (PSA; [1]): 135

Nc1ccccc1O [2-aminophenol]
S/S0 (biotinylated HRP): 1 | B-HRP0 light intensity (biotinylated HRP): 65 | S1/S0 (biotinylated HRP): 5.5 | B-HRP1 light intensity (biotinylated HRP): 356 | S2/S0 (biotinylated HRP): 132.8 | B-HRP10 light intensity (biotinylated HRP): 8,632 | S3/S0 (biotinylated HRP): 32195.4 | B-HRP100 light intensity (biotinylated HRP): 2,092,703 | S4/S0 (biotinylated HRP): 61672.1 | B-HRP250 light intensity (biotinylated HRP): 4,008,689 | effect in the model system / utility as SSIA (biotinylated HRP): demonstrating utility as SSIA | Mean RLU (GM-CSF; 2-aminophenol 55 nmoles as SSIA, GM-CSF 30000 pg/mL): 2180 RLU | Mean RLU (GM-CSF; [4]): 0.7805 RLU | S/S0 (GM-CSF; [4]): 1.000 | Mean RLU (GM-CSF; [5]): 0.8045 RLU | S/S0 (GM-CSF; [5]): 1.030 | Mean RLU (GM-CSF; [6]): 0.8865 RLU | S/S0 (GM-CSF; [6]): 1.135 | Mean RLU (GM-CSF; [7]): 0.9205 RLU | S/S0 (GM-CSF; [7]): 1.179 | Mean RLU (GM-CSF; [8]): 1.284 RLU | S/S0 (GM-CSF; [8]): 1.645 | Mean RLU (GM-CSF; [9]): 5.2805 RLU | S/S0 (GM-CSF; [9]): 6.765 | Mean RLU (GM-CSF; [10]): 47.89 RLU | S/S0 (GM-CSF; [10]): 61.358 | Mean RLU (GM-CSF; [11]): 580.6 RLU | S/S0 (GM-CSF; [11]): 743.882 | S/S0 (GM-CSF; 2-aminophenol as SSIA, GM-CSF 30000 pg/mL): 2793.081

Cn1ccnc1S
S5/S0 (PSA; PSA 129 ng/mL (S5) vs zero, test compound final conc. 36.7 mM): 102

[N-]=[N+]=[N-].[Na+] [NaN3]
S5/S0 (PSA; PSA 129 ng/mL (S5) vs zero, test compound final conc. 34 uM): 19

Nc1ncc[nH]1
S5/S0 (PSA; PSA 129 ng/mL (S5) vs zero, test compound final conc. 24.4 mM): 14

c1ccc2c(c1)Cc1ccccc1S2
S5/S0 (PSA; [1]): 9

O=C1O[C@H]([C@@H](O)CO)C([O-])=C1O.[Na+] [ascorbate sodium salt (ascorbate anion), ascorbate sodium salt]
S5/S0 (PSA; [1]): 495

Nc1ccccc1S
S5/S0 (PSA; [1]): 234

OCCO [Ethylene glycol]
S5/S0 (PSA): 14

COc1cc(O)ccc1O
S5/S0 (PSA; PSA 129 ng/mL (S5) vs zero, test compound final conc. 0.111 mM): 161

O=c1c(O)c(-c2ccccc2)oc2cc(O)ccc12
S5/S0 (PSA; [1]): 14
